# pIC50: −log10 of the molar value.
# Key:
# Cytochrome b [1] = biological target: Cytochrome b (Homo sapiens, UniProt P00156); assay: Cytochrome b Enzyme Assay; conditions: pH 7.4; 25 °C
# Method: (§1) Reaction plates were incubated at room temperature for 10 min before reading absorbance at 550 nm. Absolute IC50 values were calculated in GraphPad Prism 6.0.
# Cytochrome b [2] = biological target: T1, Cytochrome b (Candida albicans, UniProt I2BJW5); assay: Cytochrome b Enzyme Assay; conditions: pH 7.4; 25 °C
# T1 sequence (I2BJW5 whole entry): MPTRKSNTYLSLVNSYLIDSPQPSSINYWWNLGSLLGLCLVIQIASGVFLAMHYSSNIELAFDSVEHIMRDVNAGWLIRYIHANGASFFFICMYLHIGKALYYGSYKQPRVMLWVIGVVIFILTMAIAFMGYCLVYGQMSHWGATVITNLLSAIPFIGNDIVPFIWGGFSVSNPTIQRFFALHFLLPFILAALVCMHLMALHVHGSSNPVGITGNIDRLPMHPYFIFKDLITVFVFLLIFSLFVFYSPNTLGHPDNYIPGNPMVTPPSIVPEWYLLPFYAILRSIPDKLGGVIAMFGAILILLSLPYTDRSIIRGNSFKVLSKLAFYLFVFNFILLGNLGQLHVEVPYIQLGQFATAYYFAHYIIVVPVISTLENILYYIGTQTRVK
# Method: as §1
# Chain of Cytochrome b (Homo sapiens, UniProt P00156) (P00156 whole entry): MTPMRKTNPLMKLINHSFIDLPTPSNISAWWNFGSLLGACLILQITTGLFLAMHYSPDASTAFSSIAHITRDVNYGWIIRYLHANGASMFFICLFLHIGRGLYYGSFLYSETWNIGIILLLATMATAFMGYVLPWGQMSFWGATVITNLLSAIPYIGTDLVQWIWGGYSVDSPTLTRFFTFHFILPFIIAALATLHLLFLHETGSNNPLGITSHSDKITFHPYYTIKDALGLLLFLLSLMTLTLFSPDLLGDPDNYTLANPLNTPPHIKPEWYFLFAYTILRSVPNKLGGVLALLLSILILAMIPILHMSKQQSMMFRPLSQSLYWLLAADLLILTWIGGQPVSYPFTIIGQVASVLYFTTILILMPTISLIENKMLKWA
pIC50 (Cytochrome b [1]),pIC50 (Cytochrome b [2]),Structure (SMILES)
4.67,6.00,COC(=O)Cn1nc(-c2ccccc2)c2cccc(C)c21 [Inz-3]
5.19,6.54,Cc1cccc2c(-c3cc(C(F)(F)F)ccc3F)nn(Cc3nnn(C)n3)c12 [Inz-5]
6.05,7.06,COC(=O)Cn1nc(-c2cccc(OCC3CCCCC3)c2)c2ccccc21 [Inz-9]
5.06,5.98,COC(=O)Cn1nc(-c2cccc(C(F)(F)F)c2)c2ccccc21 [Inz-10]
< 4.19,5.00,COC(=O)Cn1nc(-c2cccc(C#N)c2)c2ccccc21 [Inz-11]
< 4.19,5.03,COC(=O)Cn1nc(-c2ccsc2)c2ccccc21 [Inz-13]
< 4.19,< 4.19,COC(=O)Cn1nc(-c2cccnc2)c2ccccc21 [Inz-14]
< 4.19,4.20,COC(=O)Cn1nc(-c2ccccn2)c2ccccc21 [Inz-15]
< 4.19,4.64,COC(=O)Cn1nc(-c2ccccc2OC)c2ccccc21 [Inz-16]
< 4.19,5.27,COC(=O)Cn1nc(-c2ccccc2Cl)c2ccccc21 [Inz-18]
< 4.19,< 4.19,COC(=O)Cn1nc(-c2ccccc2C#N)c2ccccc21 [Inz-20]
< 4.19,< 4.19,CS(=O)(=O)Cn1nc(-c2ccccc2)c2ccccc21 [Inz-27]
< 4.19,< 4.19,c1ccc(-c2nn(Cc3cncs3)c3ccccc23)cc1 [Inz-29]

# Continued, molecule first:
Structure (SMILES),pIC50 (Cytochrome b [1]),pIC50 (Cytochrome b [2])
"O=C1C(=O)c2ccccc2C(O)=C1C1CCC(c2ccc(Cl)cc2)CC1 (stereo unspecified) [3-[4-(4-chlorophenyl)cyclohexyl]-4-hydroxynaphthalene-1,2-dione]",5.73,5.42
COC(=O)Cn1nc(-c2ccccc2)c2ccccc21 [Inz-1],4.34,5.09
COC(=O)Cn1nc(-c2cc(C(F)(F)F)ccc2F)c2ccccc21 [Inz-2],5.34,6.84
COC(=O)Cn1nc(-c2cc(C(F)(F)F)ccc2F)c2cccc(C)c21 [Inz-4],5.98,7.59
COC(=O)Cn1nc(-c2cccc(OC)c2)c2ccccc21 [Inz-6],4.55,5.82
COC(=O)Cn1nc(-c2cccc(Oc3ccccc3)c2)c2ccccc21 [Inz-7],5.00,6.15
COC(=O)Cn1nc(-c2cccc(OCCc3ccccc3)c2)c2ccccc21 [Inz-8],4.86,6.46
COC(=O)Cn1nc(-c2cccc([N+](=O)[O-])c2)c2ccccc21 [Inz-12],< 4.19,5.22
COC(=O)Cn1nc(-c2ccccc2C)c2ccccc21 [Inz-17],< 4.19,5.47
COC(=O)Cn1nc(-c2ccccc2F)c2ccccc21 [Inz-19],4.44,5.53
COC(=O)Cn1nc(-c2cc(C(F)(F)F)ccc2F)c2cc(C(F)(F)F)ccc21 [Inz-21],< 4.19,< 4.19
COC(=O)Cn1nc(-c2cc(C(F)(F)F)ccc2F)c2c(C(F)(F)F)cccc21 [Inz-22],< 4.19,4.33
COC(=O)Cn1nc(-c2cc(C(F)(F)F)ccc2F)c2c(C)cccc21 [Inz-23],< 4.19,4.97
O=C(O)Cn1nc(-c2ccccc2)c2ccccc21 [Inz-24],< 4.19,< 4.19
CNC(=O)Cn1nc(-c2ccccc2)c2ccccc21 [Inz-25],< 4.19,< 4.19
CON(C)C(=O)Cn1nc(-c2ccccc2)c2ccccc21 [Inz-26],< 4.19,< 4.19
FC(F)(F)Cn1nc(-c2ccccc2)c2ccccc21 [Inz-28],< 4.19,< 4.19
c1ccc(-c2nn(Cc3nccs3)c3ccccc23)cc1 [Inz-30],< 4.19,< 4.19
Cc1cc(Cn2nc(-c3ccccc3)c3ccccc32)on1 [Inz-31],< 4.19,< 4.19
Cc1nnc(Cn2nc(-c3ccccc3)c3ccccc32)o1 [Inz-32],< 4.19,< 4.19
